The values below come from patent US11578055B2, “Triazacyclododecansulfonamide (“TCD”)-based protein secretion inhibitors” (KEZAR LIFE SCIENCES, priority 2018, dated 2023).

SMILES strings stand for the structures. Where a name gives a salt, the structure may show the parent alone.

As usually defined, the EC50 is the concentration that produces a half-maximal response.

The test system of data set [1] is multiple myeloma cell line U266B1. The data set can be described thus: U266 Cell Viability Assay. It is filed as cell-based, human. The settings on record: Homo sapiens, U-266; 48 hr, U266; read-out: 48 hr U266 Viability Celltiter-Glo: Mean EC50. A digest of the protocol:
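U266B1 myeloma cells in RPMI 1640 with 10% FBS were treated with compound dilutions for 48 h at 37° C, 5% CO2. Viability was read as CellTiter-Glo luminescence. Data for structures drawn without stereochemistry refer to stereoisomer mixtures.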
For orientation: ATP-based viability assays read luminescence as a measure of living cells.

The nature of data set [2]: In Vitro Microsome Stability Assay (rat). Particulars: rat, 30 min, NADPH. The format is in vitro ADME. A digest of the protocol:
(§1)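 The value reported is the percentage of parent left after 30 min, calculated from analyte/IS peak-area ratios relative to time zero by LC-MS/MS. Incubations ran at 37° C in 0.1 M potassium phosphate with NADPH and microsomes (stock 20 mg/mL), with compound added from a 0.25 mM DMSO stock. Acetonitrile containing IS stopped the reactions.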

Data set [3] is described as follows: In Vitro Microsome Stability Assay (monkey). It is filed as in vitro ADME. The settings on record: monkey, 30 min, NADPH. A digest of the protocol:
as §1

The subject of data set [4] is PD1 signal sequence plus 10 amino acids fused to Gaussia Luciferase (PD1-ss+10aa/Gaussia Luciferase). The data set can be described thus: Dox Induced PD1-ss-Gluc Assay. The settings on record: 24 hr, 293FRT/TO; read-out: 24 hr Dox Inducible PD1ssGluc 293FRT/TO: Mean IC50. The format is cell-based. A digest of the protocol:
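Stable Flp-In 293 T-REx line expressing the fusion under tetracycline-inducible control, plated the day before assay. Compound dilutions added with doxycycline and incubated at 37 °C, 5% CO2; unspecified stereocentres mean data refer to stereoisomer mixtures.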

In data set [5] the test system is full length TNFα (amino acids 1-233) fused to Gaussia Luciferase. The data set can be described thus: Dox Induced TNFα-FL-Gluc Assay. The format is cell-based. The settings on record: 24 hr, 293FRT/TO; read-out: 24 hr Dox Inducible TNFaFLGluc 293FRT/TO: Mean IC50. A digest of the protocol: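 Stable Flp-In 293 T-REx line expressing doxycycline-inducible full-length TNFα fused to Gaussia luciferase; cells plated the day before, then treated with compound dilutions in doxycycline-containing medium at 37° C, 5% CO2. Unspecified stereocentres mean stereoisomer mixtures were tested.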

The test system of data set [6] is multiple myeloma cell line NCl-H929. Put plainly: H929 Cell Viability Assay. The format is cell-based, human. Particulars: Homo sapiens, NCI-H929, 48 h, H929, read-out: 48 hr H929 Viability Celltiter-Glo: Mean EC50. A digest of the protocol: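 NCI-H929 myeloma cells in RPMI 1640 with 10% FBS were treated with compound dilutions for 48 h at 37 °C, and viability was then read by CellTiter-Glo luminescence. Compounds drawn without stereochemistry were tested as stereoisomer mixtures.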

A short description of data set [7]: In Vitro Microsome Stability Assay (mouse). It is filed as in vitro ADME. Particulars: mouse, 30 min, NADPH. A digest of the protocol:
as §1

Data set [8] is described as follows: In Vitro Microsome Stability Assay (human). It is filed as in vitro ADME. Particulars: human, 30 min, NADPH. A digest of the protocol: as §1

Regarding `C=C1CN(S(=O)(=O)c2ccc(N(C)C)cc2)CCCN(CC2CCCCC2)CCCN(S(=O)(=O)N2CCC(C#N)CC2)C1` [A39, 1-{[9-(cyclohexylmethyl)-5-[4-(dimethylamino)benzenesulfonyl]-3-methylidene-1,5,9-triazacyclododecan-1-yl]sulfonyl}piperidine-4-carbonitrile], the EC50 in data set [1] is 10.4 µM; in data set [6] it was more than 25 µM. The “Liver Microsome Stability-% Left after 30 min w/ NADPH (%) Rat” value (shortened to “Liver Microsome Stability-% Left … (%) Rat”) in data set [2] is on record as 6%. In addition, the “Liver Microsome Stability-% Left after 30 min w/ NADPH (%) Monkey” value (“Liver Microsome Stability-% Left … (%) Monkey” below) in data set [3] was 0.11%. Besides, the IC50 in data set [4] was 0.761 µM; in data set [5], more than 25 µM. Besides, the “Liver Microsome Stability-% Left after 30 min w/ NADPH (%) Mouse” value (“Liver Microsome Stability-% Left … (%) Mouse” for short) in data set [7] was 0.26%. Further, the “Liver Microsome Stability-% Left after 30 min w/ NADPH (%) Human” value (“Liver Microsome Stability-% Left … (%) Human” for short) in data set [8] came to 0.05%.

For `CN(C)c1ccc(S(=O)(=O)N2CCCN(CC3CCCCC3)CCCN(S(=O)(=O)N3CCCCC3)CC3(CC3)C2)c(F)c1` [A40], the concentration giving a half-maximal response (EC50) in data set [1] and in data set [6] was more than 25 µM each time. Besides, in data set [2], the “Liver Microsome Stability-% Left … (%) Rat” value stood at 0.12%. Further, the “Liver Microsome Stability-% Left … (%) Monkey” value in data set [3] was 0.04%. Also, the IC50 in data set [4] is 0.308 µM; in data set [5], more than 15.1 µM. Also, the “Liver Microsome Stability-% Left … (%) Mouse” value in data set [7] was 0.19%. Besides, in data set [8], the “Liver Microsome Stability-% Left … (%) Human” value turned out to be 0.04%.

Regarding `O=S(=O)(C1CCCCC1)N1CCCN(CC2CCCCC2)CCCN(S(=O)(=O)N2CCCCC2)CC2(CC2)C1` [A41], the EC50 in data set [1] and in data set [6] was more than 25 µM in each case. Further, in data set [2], the “Liver Microsome Stability-% Left … (%) Rat” value is given as 0.14%. Besides, the “Liver Microsome Stability-% Left … (%) Monkey” value in data set [3] was 0.1%. For the same molecule, the IC50 in data set [4] was 17.5 µM; in data set [5], more than 25 µM. In addition, the “Liver Microsome Stability-% Left … (%) Mouse” value in data set [7] is given as 0.2%. Besides, the “Liver Microsome Stability-% Left … (%) Human” value in data set [8] is reported as 0.08%.

On to `CN(C)c1ccc(S(=O)(=O)N2CCCN(CC3CCCCC3)CCCN(S(=O)(=O)N3CCC(c4ccccc4)CC3)CCC2)cc1` [A42, 4-{[5-(cyclohexylmethyl)-9-[(4-phenylpiperidin-1-yl)sulfonyl]-1,5,9-triazacyclododecan-1-yl]sulfonyl}-N,N-dimethylaniline], for which the EC50 in data set [1] and in data set [6] was more than 25 µM each time. In addition, the “Liver Microsome Stability-% Left … (%) Rat” value in data set [2] was found to be 7.69%. Further, the “Liver Microsome Stability-% Left … (%) Monkey” value in data set [3] is recorded as 0.81%. Also, the figures for the IC50 in data set [4] and in data set [5] were 0.696 µM and more than 25 µM, respectively. Moreover, the “Liver Microsome Stability-% Left … (%) Mouse” value in data set [7] is on record as 0.79%. Further, in data set [8], the “Liver Microsome Stability-% Left … (%) Human” value was 2.65%.

With `CC1CN(S(=O)(=O)c2ccc(N(C)C)cc2)CCCN(CC2CCCCC2)CCCN(S(=O)(=O)N2CCC(c3ccccc3)CC2)C1` (stereo not shown) [A44, 4-{[9-(cyclohexylmethyl)-3-methyl-5-[(4-phenylpiperidin-1-yl)sulfonyl]-1,5,9-triazacyclododecan-1-yl]sulfonyl}-N,N-dimethylaniline hydrochloride], the concentration for a half-maximal effect (EC50) in data set [1] and in data set [6] was more than 25 µM each time. Also, the “Liver Microsome Stability-% Left … (%) Rat” value in data set [2] stood at 54%. Further, in data set [3], the “Liver Microsome Stability-% Left … (%) Monkey” value is 38%. Further, the IC50 in data set [4] was determined as 0.132 µM; in data set [5], 12.7 µM. The “Liver Microsome Stability-% Left … (%) Mouse” value in data set [7] was 43.8%. Also, the “Liver Microsome Stability-% Left … (%) Human” value in data set [8] amounted to 47.6%.

Consider `C=C1CN(S(=O)(=O)c2ccc(N(C)C)cc2)CCCN(CC2CCCCC2)CCCN(S(=O)(=O)N2CCN(c3ccccc3)[C@H](C)C2)C1` [A46, 4-{[9-(cyclohexylmethyl)-5-{[(3 R)-3-methyl-4-phenylpiperazin-1-yl]sulfonyl}-3-methylidene-1,5,9-triazacyclododecan-1-yl]sulfonyl}-N,N-dimethylaniline], for which the EC50 in data set [1] was more than 25 µM; in data set [6], 3.34 µM. Moreover, the “Liver Microsome Stability-% Left … (%) Rat” value in data set [2] is 4.46%. For the same molecule, the “Liver Microsome Stability-% Left … (%) Monkey” value in data set [3] is 1.44%. Further, the IC50 in data set [4] was determined as 0.0501 µM; in data set [5], 1.76 µM. In data set [7], the “Liver Microsome Stability-% Left … (%) Mouse” value amounted to 3.63%. Also, the “Liver Microsome Stability-% Left … (%) Human” value in data set [8] was found to be 6.12%.

For the molecule `C=C1CN(S(=O)(=O)c2ccc(N(C)C)cc2)CCCN(CC2CCCCC2)CCCN(S(=O)(=O)N2CCN(c3ccccc3)[C@@H](C)C2)C1` [A47, 4-{[9-(cyclohexylmethyl)-5-{[(3S)-3-methyl-4-phenylpiperazin-1-yl]sulfonyl}-3-methylidene-1,5,9-triazacyclododecan-1-yl]sulfonyl}-N,N-dimethylaniline], the EC50 in data set [1] and in data set [6] was more than 25 µM throughout. For the same molecule, the “Liver Microsome Stability-% Left … (%) Rat” value in data set [2] is on record as 10.7%. In addition, the “Liver Microsome Stability-% Left … (%) Monkey” value in data set [3] is 1.68%. Besides, the IC50 in data set [4] was 0.259 µM; in data set [5], more than 25 µM. Besides, the “Liver Microsome Stability-% Left … (%) Mouse” value in data set [7] turned out to be 5.68%. Besides, the “Liver Microsome Stability-% Left … (%) Human” value in data set [8] stood at 12.6%.

Take `C=C1CN(S(=O)(=O)c2ccc(N(C)C)cc2)CCCN(CC2CCCCC2)CCCN(S(=O)(=O)N2CCN(c3ccccc3)C(=O)C2)C1` [A48, 4-{[9-(cyclohexylmethyl)-5-[4-(dimethylamino)benzenesulfonyl]-3-methylidene-1,5,9-triazacyclododecan-1-yl]sulfonyl}-1-phenylpiperazin-2-one]: the EC50 in data set [1] and in data set [6] was more than 25 µM each time. Moreover, the “Liver Microsome Stability-% Left … (%) Rat” value in data set [2] worked out at 0.4%. In addition, the “Liver Microsome Stability-% Left … (%) Monkey” value in data set [3] was 0.1%. In addition, the IC50 is 0.991 µM in data set [4] and more than 25 µM in data set [5]. Besides, the “Liver Microsome Stability-% Left … (%) Mouse” value in data set [7] was found to be 0.07%. In addition, the “Liver Microsome Stability-% Left … (%) Human” value in data set [8] came to 0.19%.

Take `C=C1CN(S(=O)(=O)c2ccc(N(C)C)cc2)CCCN(CC2CCCCC2)CCCN(S(=O)(=O)N2CCC[C@H](c3ccccc3)C2)C1` [A49, 4-{[9-(cyclohexylmethyl)-3-methylidene-5-{[(3 R)-3-phenylpiperidin-1-yl]sulfonyl}-1,5,9-triazacyclododecan-1-yl]sulfonyl}-N,N-dimethylaniline]: the half-maximal effective concentration (EC50) in data set [1] and in data set [6] was more than 25 µM throughout. In addition, the “Liver Microsome Stability-% Left … (%) Rat” value in data set [2] was found to be 16.4%. For the same molecule, the “Liver Microsome Stability-% Left … (%) Monkey” value in data set [3] was determined as 9.36%. The figures for the IC50 in data set [4] and in data set [5] were 0.407 µM and more than 25 µM, respectively. Besides, in data set [7], the “Liver Microsome Stability-% Left … (%) Mouse” value worked out at 11.8%. Further, the “Liver Microsome Stability-% Left … (%) Human” value in data set [8] is listed as 3.5%.

On to `C=C1CN(S(=O)(=O)c2ccc(N(C)C)cc2)CCCN(CC2CCCCC2)CCCN(S(=O)(=O)N2CCc3cccc(Cl)c3C2)C1` [A51, 4-({5-[(8-chloro-1,2,3,4-tetrahydroisoquinolin-2-yl)sulfonyl]-9-(cyclohexylmethyl)-3-methylidene-1,5,9-triazacyclododecan-1-yl}sulfonyl)-N,N-dimethylaniline], for which the values for the 50% effective concentration (EC50) in data set [1] and in data set [6] were more than 25 µM and 6.15 µM, respectively. The “Liver Microsome Stability-% Left … (%) Rat” value in data set [2] came out at 34.7%. Further, the “Liver Microsome Stability-% Left … (%) Monkey” value in data set [3] is on record as 23.6%. Moreover, the IC50 in data set [4] came to 0.0614 µM; in data set [5], 3.07 µM. Moreover, in data set [7], the “Liver Microsome Stability-% Left … (%) Mouse” value came to 28%. Also, the “Liver Microsome Stability-% Left … (%) Human” value in data set [8] amounted to 26.7%.

Regarding `C=C1CN(S(=O)(=O)c2ccc(N(C)C)cc2)CCCN(CC2CCCCC2)CCCN(S(=O)(=O)N2CCc3ccc(Cl)cc3C2)C1` [A52, 4-({5-[(7-chloro-1,2,3,4-tetrahydroisoquinolin-2-yl)sulfonyl]-9-(cyclohexylmethyl)-3-methylidene-1,5,9-triazacyclododecan-1-yl}sulfonyl)-N,N-dimethylaniline], the half-maximal effective concentration (EC50) in data set [1] is more than 25 µM; in data set [6], 2.11 µM. Also, in data set [2], the “Liver Microsome Stability-% Left … (%) Rat” value is 40.1%. Also, the “Liver Microsome Stability-% Left … (%) Monkey” value in data set [3] came to 38.3%. The IC50 in data set [4] came out at 0.0456 µM; in data set [5] it was 1.04 µM. The “Liver Microsome Stability-% Left … (%) Mouse” value in data set [7] is listed as 29.3%. Besides, in data set [8], the “Liver Microsome Stability-% Left … (%) Human” value is on record as 31%.
